Source: ChEMBL document CHEMBL4480461, “Karamomycins A-C: 2-Naphthalen-2-yl-thiazoles from Nonomuraea endophytica” (J Nat Prod, 2019)
Active and inactive are the calls of the source.

Legend:
Type in all cases: functional, organism-based
[1] = system: Staphylococcus aureus; experiment: Antimicrobial activity against Staphylococcus aureus at 40 ug/disc by agar diffusion method
[2] = system: Rhizomucor miehei; experiment: Antimicrobial activity against Mucor miehei Tu 284 at 40 ug/disc by agar diffusion method
[3] = system: Chlorella sorokiniana; experiment: Antimicrobial activity against Chlorella sorokiniana at 40 ug/disc by agar diffusion method
[4] = system: Desmodesmus subspicatus; experiment: Antimicrobial activity against Scenedesmus subspicatus at 40 ug/disc by agar diffusion method
[5] = system: Candida albicans; experiment: Antimicrobial activity against Candida albicans at 40 ug/disc by agar diffusion method
[6] = system: Chlorella vulgaris; experiment: Antimicrobial activity against Chlorella vulgaris at 40 ug/disc by agar diffusion method
[7] = system: Streptomyces viridochromogenes; experiment: Antimicrobial activity against Streptomyces viridochromogenes Tue57 at 40 ug/disc by agar diffusion method
[8] = system: Bacillus subtilis; experiment: Antimicrobial activity against Bacillus subtilis ATCC 6051 at 40 ug/disc by agar diffusion method
[9] = system: Escherichia coli; experiment: Antimicrobial activity against Escherichia coli at 40 ug/disc by agar diffusion method

Measured: Activity

COc1cc(C2=N[C@H](CO)CS2)c(O)c2ccccc12
inactive: [1] | [2] | [3] | [4] | [5] | [6] | [7] | [8] | [9]

COc1cc(-c2nc(CO)cs2)c(O)c2ccccc12
inactive: [1] | [2] | [3] | [4] | [5] | [6] | [7] | [8] | [9]

COc1cc(C2=N[C@H]([C@@H]3SC[C@H]4[C@@H]5SC[C@](C)(C(=O)N43)N5C)CS2)c(O)c2ccccc12
inactive: [1] | [2] | [3] | [4] | [5] | [6] | [7] | [8] | [9]
